These results are taken from patent US9365583B2, “Substituted pyrazoles and uses thereof” (Genentech, Inc., priority 2013, dated 2016).

pKi: −log10 of the molar value.

What is called pKi is the negative decadic logarithm of the Ki, by convention in mol/L.

The target of the assay is T1, N-terminally GST-tagged DLK (catalytic domain amino acid 1-520) (Homo sapiens, UniProt Q12852).
T1 construct: N-terminally GST-tagged DLK (catalytic domain amino acid 1-520); purchased Carna Bioscience
T1 sequence (Q12852 1-520): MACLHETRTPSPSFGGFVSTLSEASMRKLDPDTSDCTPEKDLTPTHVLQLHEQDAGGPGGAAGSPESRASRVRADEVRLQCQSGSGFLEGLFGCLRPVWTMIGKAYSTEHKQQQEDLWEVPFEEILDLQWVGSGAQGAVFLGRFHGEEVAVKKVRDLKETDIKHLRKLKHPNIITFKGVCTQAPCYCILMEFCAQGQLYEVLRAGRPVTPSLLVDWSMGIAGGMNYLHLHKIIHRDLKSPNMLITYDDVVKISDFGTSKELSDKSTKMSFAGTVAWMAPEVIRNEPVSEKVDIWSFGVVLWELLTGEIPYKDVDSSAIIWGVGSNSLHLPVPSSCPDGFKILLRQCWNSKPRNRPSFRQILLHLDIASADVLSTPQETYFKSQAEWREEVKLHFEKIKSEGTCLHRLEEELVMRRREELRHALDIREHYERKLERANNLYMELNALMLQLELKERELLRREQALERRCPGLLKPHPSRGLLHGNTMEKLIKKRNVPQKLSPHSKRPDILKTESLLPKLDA
As to the kind of experiment: DLK TR-FRET inhibition assay. It is filed as biochemical. The following applies: 5 nM GST-DLK, 40 nM HIS-MKK4 K131M substrate, 30 μM ATP, 60 minutes at ambient temperature. In outline: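 5 nM GST-DLK (aa 1-520), 40 nM HIS-MKK4 K131M and 30 μM ATP reacted 60 min at ambient temperature in HEPES pH 7.5 buffer with 10 mM MgCl2, compound 1:3 serially diluted from 20 uM. TR-FRET detection of phospho-MKK4 used Eu-cryptate anti-phospho-MKK4 plus D2 anti-HIS, read after 3 h (665/615 nm).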
Background: TR-FRET usually uses a lanthanide donor and a delayed reading to cut background.
Regarding `CC(C)n1nc(-c2cnc(N)c(C(F)(F)F)c2)cc1[C@H]1[C@@H]2CC(C#N)C[C@@H]21` (single isomer, unassigned) [compound 190], the pKi is 8.32.

Compound `COCCN1CC2(C[C@@H]3[C@H](C2)[C@H]3c2cc(-c3cnc(N)c(C(F)(F)F)c3)nn2C(C)C)C1` [compound 141, 5-(1-isopropyl-5-((1′R,5′S,6′r)-1-(2-methoxyethyl)spiro[azetidine-3,3′-bicyclo[3.1.0]hexan]-6′-yl)-1H-pyrazol-3-yl)-3-(trifluoromethyl)pyridin-2-amine] had a pKi of 8.07.

`CC(C)n1nc(-c2cnc(N)c(OC(F)F)c2)cc1[C@H]1[C@@H]2C[C@@H](N3C4COCC3C4)C[C@@H]21` [compound 157, 5-(5-((1R,3s,5S,6r)-3-(3-oxa-6-azabicyclo[3.1.1]heptan-6-yl)bicyclo[3.1.0]hexan-6-yl)-1-isopropyl-1H-pyrazol-3-yl)-3-(difluoro-methoxy)pyridin-2-amine] had a pKi of 8.51.

As for `COC1CCN([C@H]2C[C@@H]3[C@H](C2)[C@H]3c2cc(-c3cnc(N)c(C(F)(F)F)c3)nn2C(C)C)CC1` [compound 251, 5-(1-isopropyl-5-((1R,3r,5S,6r)-3-(4-methoxypiperidin-1-yl)bicyclo[3.1.0]hexan-6-yl)-1H-pyrazol-3-yl)-3-(trifluoromethyl) pyridin-2-amine], the pKi is 8.57.

The compound `CO[C@H]1CCN([C@@H]2C[C@@H]3[C@H](C2)[C@H]3c2cc(-c3cnc(N)c(OC(F)F)c3)nn2C(C)C)C1` [compound 215, 3-(difluoromethoxy)-5-(1-isopropyl-5-((1R,3s,5S,6S)-3-((S)-3-methoxypyrrolidin-1-yl)bicyclo [3.1.0]hexan-6-yl)-1H-pyrazol-3-yl)pyridin-2-amine] gave a pKi of 8.85.

`CC(C)n1nc(-c2cnc(N)c(C(F)(F)F)c2)cc1[C@H]1[C@@H]2C[C@H](N(C)C3COC3)C[C@@H]21` [compound 49, 5-(1-isopropyl-5-((1R,3r,5S,6r)-3-(methyl(oxetan-3-yl)amino)bicyclo[3.1.0]hexan-6-yl)-1H-pyrazol-3-yl)-3-(trifluoromethyl) pyridin-2-amine] gave a pKi of 8.38.

Regarding `CC(C)n1nc(-c2cnc3ccn([C@H](C)c4ccccn4)c3c2)cc1[C@H]1[C@@H]2C[C@@H](N3CCOCC3)C[C@@H]21` [compound 25, 4-((1R,3S,5S,6r)-6-(1-isopropyl-3-(1-((R)-1-(pyridin-2-yl)ethyl)-1H-pyrrolo[3,2-b]pyridin-6-yl)-1H-pyrazol-5-yl)bicyclo[3.1.0]hexan-3-yl)morpholine], the pKi was 7.15.

`COCCO[C@@H]1C[C@@H]2[C@H](C1)[C@H]2c1cc(-c2cnc(N)c(C(F)(F)F)c2)nn1C(C)C` [compound 275, 5-(1-isopropyl-5-((1R,3s,5S,6r)-3-(2-methoxyethoxy)bicyclo [3.1.0]hexan-6-yl)-1H-pyrazol-3-yl)-3-(trifluoromethyl)pyridin-2-amine] gave a pKi of 8.33.

On to `CO[C@@H]1C[C@@H]2[C@H](C1)[C@H]2c1cc(-c2cnc(N)c(OC(F)F)c2)nn1C(C)C` [compound 195, 3-(difluoromethoxy)-5-(1-isopropyl-5-((1R,3s,5S,6r)-3-methoxy-bicyclo[3.1.0]hexan-6-yl)-1H-pyrazol-3-yl)pyridin-2-amine], for which the pKi was 8.19.

`CC(C)n1nc(-c2cnc(N)c(OC(F)(F)F)c2)cc1[C@H]1[C@@H]2C[C@@H](N3CCOC[C@H]3C)C[C@@H]21` [compound 13, 5-(1-isopropyl-5-((1R,3s,5S,6R)-3-((R)-3-mcthylmorpholino)bicyclo[3.1.0]hexan-6-yl)-1H-pyrazol-3-yl)-3-(trifluoromethoxy) pyridin-2-amine] showed a pKi of 8.72.

For the compound `CC(C)n1nc(-c2cnc(N)c(OC(F)(F)F)c2)cc1[C@H]1[C@@H]2C[C@@H](N(C)CC3COC3)C[C@@H]21` [compound 18, 5-(1-isopropyl-5-((1R,3s,5S,6r)-3-(methyl(oxetan-3-ylmethyl)amino)bicyclo[3.1.0]hexan-6-yl)-1H-pyrazol-3-yl)-3-(trifluoromethoxy) pyridin-2-amine], the pKi was 8.42.

In turn, `CC(C)n1nc(-c2cnc(N)c(OC(F)(F)F)c2)cc1[C@H]1[C@@H]2C[C@@H](N3C[C@@H]4C[C@H]3CO4)C[C@@H]21` [compound 164, 5-(5-((1R,3s,5S,6S)-3-((1S,4S)-2-oxa-5-azabicyclo[2.2.1]heptan-5-yl)bicyclo[3.1.0]hexan-6-yl)-1-isopropyl-1H-pyrazol-3-yl)-3-(trifluoromethoxy)pyridin-2-amine] showed a pKi of 8.48.

The compound `Nc1ncc(-c2cc([C@H]3[C@@H]4C[C@H](N5CCOCC5)C[C@@H]43)nn2C2CCC2)cc1OC(F)F` [compound 132, 5-(1-cyclobutyl-3-((1R,3r,5S,6r)-3-morpholinobicyclo[3.1.0]hexan-6-yl)-1H-pyrazol-5-yl)-3-(difluoromethoxy)pyridin-2-amine] had a pKi of 6.59. This pKi lies 1.89 log units lower than the previous one.

In turn, `Nc1ncc(-c2cc([C@H]3[C@@H]4C[C@@H](N5CCCOCC5)C[C@@H]43)n(CC(F)F)n2)cc1C(F)(F)F` [compound 135, 5-(5-((1R,3s,5S,6r)-3-(1,4-oxazepan-4-yl)bicyclo[3.1.0]hexan-6-yl)-1-(2,2-difluoroethyl)-1H-pyrazol-3-yl)-3-(trifluoromethyl) pyridin-2-amine] had a pKi of 8.25.

Compound `CO[C@H]1CCCN([C@H]2C[C@@H]3[C@H](C2)[C@H]3c2cc(-c3cnc(N)c(C(F)(F)F)c3)nn2C(C)C)C1` [compound 286, 5-(1-isopropyl-5-((1R,3r,5S,6S)-3-((S)-3-methoxypiperidin-1-yl)bicyclo[3.1.0]hexan-6-yl)-1H-pyrazol-3-yl)-3-(trifluoromethyl) pyridin-2-amine] had a pKi of 8.47.

With `COCC1(F)CCN(C2C[C@@H]3C(c4cc(-c5cnc(N)c(OC(F)F)c5)nn4C(C)C)[C@@H]3C2)C1` (single isomer, unassigned) [compound 174], the pKi was 8.28.

Regarding `Nc1ncc(-c2cc([C@H]3[C@@H]4C[C@H](N5CCOCC5)C[C@@H]43)n(CC(F)F)n2)cc1C(F)(F)F` [compound 91, 5-(1-(2,2-difluoroethyl)-5-((1R,3r,5S,6r)-3-morpholinobicyclo [3.1.0]hexan-6-yl)-1H-pyrazol-3-yl)-3-(trifluoromethyl)pyridin-2-amine], the pKi is 8.42.

As for `CC(C)n1nc(-c2cnc(N)c(OC(F)F)c2)cc1[C@H]1[C@@H]2C[C@H](N3CCOC[C@@H]3C)C[C@@H]21` [compound 80, 3-(difluoromethoxy)-5-(1-isopropyl-5-((1R,3r,5S,6S)-3-((S)-3-methylmorpholino)bicyclo[3.1.0]hexan-6-yl)-1H-pyrazol-3-yl) pyridin-2-amine], the pKi was 9.22.

With `CO[C@@H]1CCN([C@@H]2C[C@@H]3[C@H](C2)[C@H]3c2cc(-c3cnc(N)c(C(F)(F)F)c3)nn2C(C)C)C1` [compound 192, 5-(1-isopropyl-5-((1R,3s,5S,6R)-3-((R)-3-methoxypyrrolidin-1-yl)bicyclo[3.1.0]hexan-6-yl)-1H-pyrazol-3-yl)-3-(trifluoromethyl) pyridin-2-amine], the pKi is 8.59.

For `CC(C)n1nc(-c2cnc(N)c(OC(F)F)c2)cc1[C@H]1[C@@H]2C[C@H](NCC(F)(F)F)C[C@@H]21` [compound 120, 3-(difluoromethoxy)-5-(1-isopropyl-5-((1R,3r,5S,6r)-3-((2,2,2-trifluoroethyl)amino)bicyclo [3.1.0]hexan-6-yl)-1H-pyrazol-3-yl) pyridin-2-amine], the pKi is 8.16. This pKi lies 0.43 log units lower than the previous one.

As to `CC(C)n1nc(-c2cnc(N)c(C(F)(F)F)c2)cc1[C@H]1[C@@H]2C[C@@H](N3C[C@@H]4C[C@H]3CO4)C[C@@H]21` [compound 167, 5-(5-((1R,3s,5S,6S)-3-((1S,4S)-2-oxa-5-azabicyclo[2.2.1]heptan-5-yl)bicyclo[3.1.0]hexan-6-yl)-1-isopropyl-1H-pyrazol-3-yl)-3-(trifluoromethyl)pyridin-2-amine], the pKi is 8.85.

Regarding `CC(C)n1nc(-c2cnc(N)c(OC(F)(F)F)c2)cc1[C@H]1[C@@H]2C[C@H](N3CC(F)(F)C3)C[C@@H]21` [compound 53, 5-(5-((1R,3r,5S,6r)-3-(3,3-difluoro-azetidin-1-yl)bicyclo[3.1.0]hexan-6-yl)-1-isopropyl-1H-pyrazol-3-yl)-3-(trifluoromethoxy) pyridin-2-amine], the pKi was 8.33. Compared with the last compound, the pKi is 0.52 log units lower.

Turning to `CC(C)n1nc(-c2cnc(N)c(C(F)(F)F)c2)cc1[C@H]1[C@@H]2C[C@H](N3CCOC[C@H]3C)C[C@@H]21` [compound 46, 5-(1-isopropyl-5-((1R,3s,5S,6R)-3-((R)-3-methylmorpholino)bicyclo[3.1.0]hexan-6-yl)-1H-pyrazol-3-yl)-3-(trifluoromethyl) pyridin-2-amine], the pKi is 8.73.
